According to paper PMC9844538 (Nature chemical biology, 2022):
Starred links: 1 amine or outer side, 2 acyl side, 3 side chain; linkers in the order of their positions; H or OH if unused. Positions of bridges follow the written chain, without caps; N, C: chain ends. Non-standard residues stand in square brackets, D forms with d. Residues, ends and D or L forms follow the SMILES beside them. *: point of attachment. βAsp = O=C(O)[C@H](CC(=O)[*:2])N[*:1]; His(π-Me) = Cn1cncc1C[C@H](N)C(=O)O; For = O=C*

How the values were obtained:
[1] = tested on: M. tuberculosis (GyrA D94N); type: cell-based, Mycobacterium tuberculosis
[2] = tested on: Mycobacterium tuberculosis H37Rv mc^26020 gyrA G88C; assay: MIC, broth microdilution; type: cell-based
[3] = tested on: Mycobacterium tuberculosis H37Rv mc^26020 gyrA G88S; assay: MIC, broth microdilution; type: cell-based
[4] = tested on: M. tuberculosis bacA (Rv1819c) mutants (L469P, L470P and S577R); type: cell-based, Mycobacterium tuberculosis

## C[C@@H](O)[C@H](NC(=O)[C@H](Cc1c[nH]c2ccccc12)NC=O)C(=O)N[C@H](CCCNC(=N)N)C(=O)N[C@@H]1C(=O)N[C@@H](Cc2cncn2C)C(=O)N[C@H](C(=O)O)CC(=O)N[C@H](CO)C(=O)N[C@@H](Cc2ccccc2)C(=O)NCC(=O)N[C@H](CCCNC(=N)N)C(=O)N[C@@H](CO)C(=O)N[C@H](C(=O)O)CC(=O)O[C@@H]1C [evybactin] (For-WT[dR]T[His(π-Me)][βAsp][dS]FG[dR]S[βAsp]; ester 4-C)
[1]
  effect of GyrA D94N mutation on susceptibility: did not have any effect

## COc1c(N2C[C@@H]3CCCN[C@@H]3C2)c(F)cc2c(=O)c(C(=O)O)cn(C3CC3)c12 [moxifloxacin]
[2]
  susceptibility of GyrA G88C mutant: resistant
[3]
  susceptibility of GyrA G88S mutant: more susceptible

## bleomycin
[4]
  MIC (after shift): 1 µg/mL
